Results taken from paper PMC11945486, “TAS1R2/TAS1R3 Single-Nucleotide Polymorphisms Affect Sweet Taste Receptor Activation by Sweeteners: The SWEET Project” (Nutrients, 2025).

Target: T1, mTAS1R2-WT/mTAS1R3-I60T (Mus musculus, UniProt Q925D8+Q925I4, I60T)
T1 construct: expressed in transfected cells; host or cells: HEK293T-Gα16gust44
T1 sequence (Q925I4 20-843): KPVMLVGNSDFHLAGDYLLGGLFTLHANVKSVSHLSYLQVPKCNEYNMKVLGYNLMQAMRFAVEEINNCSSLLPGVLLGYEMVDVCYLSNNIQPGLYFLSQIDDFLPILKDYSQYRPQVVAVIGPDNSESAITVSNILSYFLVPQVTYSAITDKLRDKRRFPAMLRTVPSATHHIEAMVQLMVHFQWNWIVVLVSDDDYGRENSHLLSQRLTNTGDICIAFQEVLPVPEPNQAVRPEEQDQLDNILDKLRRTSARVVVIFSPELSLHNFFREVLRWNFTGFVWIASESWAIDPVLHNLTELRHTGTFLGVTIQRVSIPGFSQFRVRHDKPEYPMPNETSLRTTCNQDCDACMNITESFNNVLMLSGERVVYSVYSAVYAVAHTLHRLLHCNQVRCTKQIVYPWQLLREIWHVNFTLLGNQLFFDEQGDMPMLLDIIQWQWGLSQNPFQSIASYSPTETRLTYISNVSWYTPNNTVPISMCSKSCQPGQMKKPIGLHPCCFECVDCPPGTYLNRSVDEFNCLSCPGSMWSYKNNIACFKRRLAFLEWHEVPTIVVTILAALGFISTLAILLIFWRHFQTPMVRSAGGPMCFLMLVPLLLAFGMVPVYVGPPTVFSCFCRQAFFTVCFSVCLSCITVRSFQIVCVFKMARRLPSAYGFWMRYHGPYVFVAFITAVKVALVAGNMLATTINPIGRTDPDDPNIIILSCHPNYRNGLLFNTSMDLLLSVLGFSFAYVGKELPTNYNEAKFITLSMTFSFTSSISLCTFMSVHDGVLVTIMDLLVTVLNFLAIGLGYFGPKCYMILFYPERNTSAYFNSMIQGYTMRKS
T1 sequence (Q925D8 21-858 I60T): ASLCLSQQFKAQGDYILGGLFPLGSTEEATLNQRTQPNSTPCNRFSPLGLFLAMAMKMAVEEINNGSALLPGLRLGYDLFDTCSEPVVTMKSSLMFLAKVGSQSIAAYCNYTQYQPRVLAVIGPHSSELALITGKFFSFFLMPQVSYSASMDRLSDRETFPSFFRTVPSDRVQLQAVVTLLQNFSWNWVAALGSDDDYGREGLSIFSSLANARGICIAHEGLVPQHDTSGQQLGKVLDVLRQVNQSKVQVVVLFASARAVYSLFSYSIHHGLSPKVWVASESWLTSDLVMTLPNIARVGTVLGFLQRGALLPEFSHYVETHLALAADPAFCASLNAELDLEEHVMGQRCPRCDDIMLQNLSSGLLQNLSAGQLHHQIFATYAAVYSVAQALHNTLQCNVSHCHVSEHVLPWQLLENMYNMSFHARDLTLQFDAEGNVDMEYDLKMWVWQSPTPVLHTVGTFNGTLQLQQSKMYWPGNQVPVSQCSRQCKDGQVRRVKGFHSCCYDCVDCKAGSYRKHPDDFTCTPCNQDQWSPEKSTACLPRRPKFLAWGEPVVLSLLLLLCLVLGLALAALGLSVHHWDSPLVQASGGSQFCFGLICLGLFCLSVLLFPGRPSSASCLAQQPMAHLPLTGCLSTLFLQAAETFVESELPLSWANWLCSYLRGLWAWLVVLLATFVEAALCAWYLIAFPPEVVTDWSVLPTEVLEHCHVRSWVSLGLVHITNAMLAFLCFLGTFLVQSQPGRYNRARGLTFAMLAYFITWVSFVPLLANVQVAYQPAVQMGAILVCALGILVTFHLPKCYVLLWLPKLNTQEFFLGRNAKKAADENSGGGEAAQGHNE
Test: Calcium mobilisation assay, HEK293T-Gα16gust44 cells, mouse TAS1R3-I60T variant
Type: cell-based
Conditions: "-": no activation; for EC50 / Max ΔF/F0: mTAS1R2-WT + mTAS1R3-I60T; for Max ΔF/F0: maximal signal amplitude; for R1 = Variant EC50/WT EC50: mTAS1R3-I60T vs mTAS1R3-WT
Experimental: The HEK293T cells were kindly provided by Jay P. Slack (Givaudan Flavors Corporation; Cincinnati, OH, USA). HEK293T cells stably transfected with Gα16gust44 [43, 67] were seeded in poly-D-lysine-coated clear-bottom black 96-well plates (0.35 × 10^5 cells/well) in high-glucose DMEM supplemented with 2 mM GlutaMAX, 10% dialysed foetal bovine serum with penicillin/streptomycin and G418 (400 μg/mL) at 37 °C and 6.3% CO2 in a humidified atmosphere as previously reported. […] As a negative control, HEK293T cells were mock-transfected with the empty expression vector. After a further 24 h of incubation, the HEK293T cells were washed with C1 buffer (130 mM NaCl, 5 mM KCl, 10 mM HEPES pH 7.4 and 2 mM CaCl2). The 96-well plates containing the cells were then stimulated with sweet-tasting compounds. […] Different concentration ranges were tested depending on the sweet compound injected. The Ca^2+ changes were expressed as fractional changes in fluorescent light intensity: ΔF/F = (F − F0)/F0, where F was the fluorescent light intensity at each point, and F0 was the value of emitted fluorescent light prior to stimulus application. To calculate dose–response relationships, the changes in fluorescence upon stimulus application were averaged, mock-subtracted and baseline-corrected. The dose–response data obtained were adjusted using a 4-parameter logistic equation. The half-maximal effective concentrations (EC50 values) and maximal signal amplitudes were calculated using SigmaPlot software (version 15.0) (Systat Software; San Jose, CA, USA).
HEK293T-Gα16gust44 cells were transiently cotransfected with pcDNA6-MAX-mTAS1R2-FLAG, pcDNA4-MAX-mTAS1R3-WT-FLAG or pcDNA4-MAX-mTAS1R3-I60T-FLAG, and pCMV-GCaMP5G as previously described in detail. After 24 h, the cells were washed with C1 buffer and stimulated with a logarithmically increasing range of sweetener concentrations. Calcium responses during automated application were monitored using a FlexStation®3 Multi-Mode microplate reader. The dose–response curves, EC50 values and maximal signal amplitudes were calculated as previously described.
For in vitro calcium mobilisation assay performed on hTAS1R2-SNPs, hTAS1R3-SNPs and mTAS1R3-I60T, 6 to 7 concentrations were tested for each sweet compound, plus buffer alone. All concentration–receptor combinations were measured in duplicate, and each experiment was repeated at least 4 times (8 wells/concentration). Results were expressed for each concentration as ΔF/F mean ± SEM and represented as dose–response curves.

Structure (SMILES)	EC50 [µM]	Max ΔF/F0	R1 = Variant EC50/WT EC50
CC1=CC(=O)NS(=O)(=O)O1 [Acesulfame K, acesulfame K]	744 ± 19	1.03 ± 0.02	1.7
C[C@H](CC[C@@H](O[C@@H]1O[C@H](CO[C@@H]2O[C@H](CO)[C@@H](O)[C@H](O)[C@H]2O)[C@@H](O)[C@H](O)[C@H]1O[C@@H]1O[C@H](CO)[C@@H](O)[C@H](O)[C@H]1O)C(C)(C)O)[C@H]1CC[C@@]2(C)[C@@H]3CC=C4[C@@H](CC[C@H](O[C@@H]5O[C@H](CO[C@@H]6O[C@H](CO)[C@@H](O)[C@H](O)[C@H]6O)[C@@H](O)[C@H](O)[C@H]5O)C4(C)C)[C@]3(C)[C@H](O)C[C@]12C [Mogroside V, mogroside V]	225 ± 25	0.50 ± 0.03	1.7
C=C1C[C@@]23CC[C@H]4[C@@](C)(CCC[C@@]4(C)C(=O)O[C@@H]4O[C@H](CO)[C@@H](O)[C@H](O[C@@H]5O[C@H](CO)[C@@H](O)[C@H](O)[C@H]5O)[C@H]4O[C@@H]4O[C@H](CO)[C@@H](O)[C@H](O)[C@H]4O)[C@@H]2CC[C@]1(O[C@@H]1O[C@H](CO)[C@@H](O)[C@H](O[C@@H]2O[C@H](CO)[C@@H](O)[C@H](O)[C@H]2O)[C@H]1O[C@@H]1O[C@H](CO)[C@@H](O)[C@H](O)[C@H]1O)C3 [Rebaudioside M, rebaudioside M]	73 ± 2	0.71 ± 0.01	1.7
OC[C@H]1O[C@H](O[C@]2(CCl)O[C@H](CCl)[C@@H](O)[C@@H]2O)[C@H](O)[C@@H](O)[C@H]1Cl [Sucralose]	1520 ± 56	1.47 ± 0.03	2.0
